Measurements published in publication PMC6943638, “Lectin PLL3, a Novel Monomeric Member of the Seven-Bladed β-Propeller Lectin Family” (Molecules, 2019).
Like-named read-outs stand apart in the source and are kept apart here.

What was measured:
[1] = molecular target: T1, PLL3 (Photorhabdus laumondii subsp. laumondii, UniProt Q7N8I7); experiment: Hemagglutination inhibition assay (PLL3 with erythrocytes of blood group O); type: cell-based; details: PLL3 50 μM; for inhibition of hemagglutination: blood group O erythrocytes, saccharide 100 to 0.1 mM; for minimal inhibitory concentration (MIC) of hemagglutination: erythrocytes of blood group O 10% (v/v)
T1 sequence (Q7N8I7 entry or part of it): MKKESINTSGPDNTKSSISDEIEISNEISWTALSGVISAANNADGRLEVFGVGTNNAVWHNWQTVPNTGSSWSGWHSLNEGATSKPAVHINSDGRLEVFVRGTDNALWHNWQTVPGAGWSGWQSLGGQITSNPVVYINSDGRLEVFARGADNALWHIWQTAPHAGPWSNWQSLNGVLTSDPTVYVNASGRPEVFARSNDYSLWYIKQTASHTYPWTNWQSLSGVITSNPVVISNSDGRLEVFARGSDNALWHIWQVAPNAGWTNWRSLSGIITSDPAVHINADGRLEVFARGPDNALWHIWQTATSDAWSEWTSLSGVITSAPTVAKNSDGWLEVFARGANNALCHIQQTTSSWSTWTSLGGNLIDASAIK
Description: For the hemagglutination inhibition assay, the PLL3 was mixed with serially diluted saccharides (L-fucose, αMeFuc, D-galactose, D-glucose, and 3-O-methyl-D-glucose) dissolved in PBS buffer, and mixtures were incubated for 15 min at room temperature. Subsequently, erythrocytes of blood group O were added into the mixture with following incubation for 15 min. The final concentration was 50 μM for the PLL3 and 10% (v/v) for erythrocytes. Concentrations of L-fucose and αMeFuc ranged from 50 to 0.05 mM. Concentrations of D-galactose, D-glucose, and 3-O-methyl-D-glucose ranged from 100 to 0.1 mM. Each sample was observed under the optical microscope (Olympus IX81 with camera DP72; 200x magnification; SW CellSens Dimension, Olympus corporation, Tokyo, Japan).

[2] = molecular target: T1, PLL3; experiment: Isothermal titration calorimetry (ITC); type: binding
Description: ITC experiments were carried out using an AutoITC200 calorimeter (Malvern, UK) at 25 °C. The purified lectin was dialyzed against 20 mM Tris/HCl, 150 mM NaCl, pH 7.5 buffer before measurements. Individual ligands (L-fucose, αMeFuc, D-galactose, D-glucose, 3-O-methyl-D-glucose, and decavalent fucosylated glycoclusters 4a and 4b) were dissolved in the same buffer. PLL3 (100 μM) in the cell was titrated by the successive addition (2.0 μL) of the ligand in the syringe (20 mM for monosaccharides, 1 mM for multivalent fucosides). Experiments with monosaccharides were performed at stirring 750 rpm with a reference power of 10 μcal s^−1. Experiments with multivalent fucosides were performed at stirring 500 rpm with a reference power of 6 μcal s^−1. Titrations were carried out in three independent measurements for each ligand. Blank measurements were subtracted from collected data. For multivalent fucosides, two blank measurements were performed: titration of the buffer into the cell with PLL3 and titration of the buffer into the buffer. For monosaccharides, the additional blank measurement, the titration of a given ligand into the cell with buffer, was performed. The data were evaluated in software MicroCal PEAQ-ITC Analysis Software (Malvern, UK) by using the global fit method. Integrated heat effects were analyzed by nonlinear regression.

[3] = molecular target: T1, PLL3; experiment: SPR inhibition test on immobilized OMeDis; type: binding
Description: (§1) SPR experiments were performed in a BIAcore T200 instrument (GE Healthcare, UK) using a four-channel sensor chip CM5 with a carboxymethyldextran surface layer (GE Healthcare, UK). Saccharides were immobilized on the chip surface using the procedure as described elsewhere. Immobilization was performed in the HBS buffer (10 mM HEPES, 150 mM NaCl, 0.05% Tween 20, pH 7.5) at a flow rate of 10 μL min^−1. For OMeDis immobilization, the surface of the channel was activated with N-hydroxysuccinimide/N-ethyl-N-(3-dimethylaminopropyl)carbodiimide solution (NHS/EDC) and subsequently OMeDis covalently modified by linker (-O-(p-C6H4)-OCH2CH2NH2) in HBS was injected. The final response of immobilized OMeDis was 136 RU. Non-reacted groups were blocked by 1 M ethanolamine/HCl (pH 8.5). A corresponding blank channel was prepared the same way, omitting the ligand injection. […] Biotinylated α-L-fucoside was injected onto this channel to the final response of 63 RU. A corresponding blank channel was prepared the same way without the injection of biotinylated fucoside.
SPR inhibition tests were carried out on a channel with immobilized OMeDis using the same buffer and flow rate values as those for the binding studies. The final concentration of the lectin was 20 μM. PLL3 was mixed with serially diluted saccharides (50–0.05 mM for L-fucose; 12.5–0.013 mM for αMeFuc; 200–0.2 mM for 3-O-methyl-D-glucose; and 400–0.4 mM for D-glucose and D-galactose) and injected onto the chip. The lectin sample without ligand was used as a control with 0% inhibition effect. The response of blank channel as well as the response of corresponding saccharides were subtracted from the response of lectin bound to the OMeDis surface at equilibrium. A final response was plotted against the concentration of inhibitor in order to determine IC50 (concentration of inhibitor resulting in 50% inhibition of binding).

[4] = molecular target: T1, PLL3; experiment: Surface plasmon resonance, apparent KD on immobilized glycans; type: binding; details: SPR, immobilized glycan, PLL3 100 to 0.195 μM, steady-state
Description: as §1
(§2) Between individual injections, the channels were regenerated by 50 mM NaOH for 30 s. The experiment was run at a flow rate of 30 μL min^−1 and a contact time of 120 s. The concentration of PLL3 ranged from 100 μM to 0.195 μM. An apparent KD was calculated in BIAevaluation software using the steady-state approach.

[5] = system: PLL3; experiment: as above; type: binding, Photorhabdus laumondii subsp. laumondii; details: PLL3 compared with PLL2 and PHL of ref 17
Description: as §1, §2

[6] = molecular target: T1, PLL3; experiment: Glycan array screening with DyLight 488-labeled PLL3; type: binding; details: PLL3 200 μg mL^-1, hexaplicates
Excerpt: Purified PLL3 protein was labeled with DyLight 488 NHS Ester (Thermo Scientific, Rockford, MI, USA) according to the manual instructions of the manufacturer. The unbound dye was removed from the solution using the Zeba Spin Desalting Column (Thermo scientific). The labeled lectin was used for glycan array screening using a glycan microarray chip (Semiotik, Moscow, Russia; chip format OSPS280715; slide number 10085636) containing over 600 mammalian and bacterial glycans (all in hexaplicates). The glycan microarray chip was incubated in 1.0 mL of PBS buffer supplemented with 0.1% (v/v) Tween 20 and placed in a humid chamber for 15 min (37 °C, 40 rpm). Then, the buffer was replaced by 0.5 mL PLL3 (200 μg mL^−1) diluted in PBS buffer with 0.1% Tween 20 and 1% (w/v) bovine serum albumin (Serva, Germany). After incubation (90 min, 37 °C, 40 rpm), the chip was washed by decreasing concentrations of PBS with 0.1% Tween 20, followed by multiple immersions in ultrapure water. Subsequently, the chip was dried by air blow. Fluorescence was read with a scanner InnoScan 1100 AL (Innopsys, Carbonne, France) with a 488 nm laser at 20 °C. The data were analyzed with the software Mapix 8.2.2 and an online glycan chip converter (Semiotik, https://rakitko.shinyapps.io/semiotik). The relative fluorescent response of PLL3 binding was calculated from hexaplicates of each glycan immobilized onto the chip. Only glycans with a response three or more times higher than trehalose and concurrently with a signal-to-noise ratio higher than two were considered as significant binders.

[7] = stoichiometry fixed to 3, 25 °C, read-out: KD
[8] = stoichiometry fixed to 4, 25 °C, read-out: KD
[9] = stoichiometry fixed to 5, 25 °C, read-out: KD
[10] = stoichiometry fixed to 6, 25 °C, read-out: KD
[11] = stoichiometry fixed to 7, 25 °C, read-out: KD

| Molecule | inhibition of hemagglutination [1] | Kd [2, 7] [mM] | Kd [2, 8] [mM] | Kd [2, 9] [mM] | Kd [2, 10] [mM] | Kd [2, 11] [mM] | inhibitory effect ([3]; PLL3 20 μM, immobilized OMeDis, highest concentration used 400 mM) | Kd [4] [mM] | interaction with immobilized OMeDis, fold weaker than for PLL2 and PHL [5] | minimal inhibitory concentration (MIC) of hemagglutination [1] [µM] | IC50 [3] [mM] | IC50 ([3]; inhibition of interaction between PLL3 (20 μM) and immobilized OMeDis, read-out: IC50) [mM] | glycan array response relative to trehalose (negative control) [6] [fold] | Kd ([2]; text summary over stoichiometry fixed 3 to 7, read-out: KD values) [mM] |
| --- | --- | --- | --- | --- | --- | --- | --- | --- | --- | --- | --- | --- | --- | --- |
| OC[C@H]1OC(O)[C@H](O)[C@@H](O)[C@@H]1O (stereo partly drawn) [D-glucose] | did not inhibit hemagglutination | 3.7 ± 0.08 | 3.6 ± 0.08 | 3.4 ± 0.08 | 3.3 ± 0.07 | 3.1 ± 0.07 | did not exhibit any inhibitory effect |  |  |  |  |  |  |  |
| 3,6-O-Me2-Glcβ1-4(2,3-O-Me2)Rhaα [OMeDis] |  |  |  |  |  |  |  | 0.607 ± 0.046 | 10^5 fold |  |  |  |  |  |
| C[C@H](O)[C@@H](O)[C@@H](O)[C@H](O)C=O [L-fucose] |  | 3.4 ± 0.12 | 3.3 ± 0.12 | 3.2 ± 0.11 | 3.1 ± 0.1 | 3 ± 0.09 |  |  |  | 1560 | 2.51 ± 0.09 |  |  |  |
| CO[C@@H]1O[C@@H](C)[C@@H](O)[C@@H](O)[C@@H]1O [methyl α-L-fucopyranoside] |  | 0.7 ± 0.02 | 0.7 ± 0.03 | 0.6 ± 0.03 | 0.6 ± 0.03 | 0.6 ± 0.03 |  |  |  | 780 |  | 1.04 ± 0.05 |  |  |
| α-L-fucoside |  |  |  |  |  |  |  | 0.322 ± 0.086 |  |  |  |  | ~20 |  |
| CO[C@@H]([C@H](O)[C@H](O)CO)[C@@H](O)C=O [3-O-methyl-D-glucose] | did not inhibit hemagglutination | 11.3 ± 1.55 | 11.1 ± 1.5 | 10.9 ± 1.5 | 10.7 ± 1.5 | 10.4 ± 1.45 |  |  |  |  | 26.4 ± 2.84 |  |  | > 10.4 |
